Earlier results as cited in patent US20130225581A1, “NITROGEN-CONTAINING AROMATIC HETEROCYCLIC DERIVATIVE” (KYOWA HAKKO KIRIN CO., LTD, priority 2010, published 2013).

Test system: human gastric cancer tumor models

SMILES	antitumor activities
COc1cc2nccc(Oc3ccc(NC(=O)NC4CC4)c(Cl)c3)c2cc1C(N)=O [4-[3-chloro-4-(cyclopropylaminocarbonyl)aminophenoxy]-7-methoxy-6-quinolinecarboxamide]	show antitumor activities
COc1cc2c(Oc3ccc4[nH]c(C)cc4c3F)ncnc2cc1OCCCN1CCCC1 [AZD2171]	show antitumor activities
